The text below walks through data of ChEMBL document CHEMBL4814025, “Exploring naltrexamine derivatives featuring azaindole moiety via nitrogen-walk approach to investigate their in vitro pharmacological profiles at the mu opioid receptor” (Bioorg Med Chem Lett, 2021).

In experiment [1] the target is Mu-type opioid receptor (Homo sapiens) (UniProt P35372). As to the kind of experiment: Partial agonist activity at mu opioid receptor (unknown origin) expressed in CHO cell membranes incubated for 1 hr by [35S]GTPgammaS binding assay relative to DAMGO. It counts as functional. The following applies: Membrane. On the technique in general: Binding of GTPγS marks nucleotide exchange on a G protein.

In experiment [2] the target is T1, Mu-type opioid receptor (Mus musculus, UniProt P42866). The experiment can be described thus: Displacement of [3H]-NLX from mouse mu opioid receptor expressed in CHO cell membranes measured after 1.5 hrs by competitive radioligand binding assay. More on the design: species or system Membrane. Background: Loss of bound radioactivity is the signal in a displacement assay; it reports binding, not function.

Experiment [3] has as its target Mu-type opioid receptor (Mus musculus) (UniProt P42866). The experiment can be described thus: Partial agonist activity at mouse mu opioid receptor expressed in CHO cell membranes assessed as stimulation of [35S]GTPgammaS binding incubated for 1.5 hrs by scintillation counting method relative to DAMGO. It counts as functional. The following applies: Membrane.
For experiment [4], the target named is T1, Mu-type opioid receptor. The experiment can be described thus: Partial agonist activity at mouse mu opioid receptor expressed in CHO cell membranes incubated for 1.5 hrs by [35S]GTPgammaS binding based scintillation counting method. Format: functional, Membrane.

Sequence of Mu-type opioid receptor (Homo sapiens) (P35372 whole entry): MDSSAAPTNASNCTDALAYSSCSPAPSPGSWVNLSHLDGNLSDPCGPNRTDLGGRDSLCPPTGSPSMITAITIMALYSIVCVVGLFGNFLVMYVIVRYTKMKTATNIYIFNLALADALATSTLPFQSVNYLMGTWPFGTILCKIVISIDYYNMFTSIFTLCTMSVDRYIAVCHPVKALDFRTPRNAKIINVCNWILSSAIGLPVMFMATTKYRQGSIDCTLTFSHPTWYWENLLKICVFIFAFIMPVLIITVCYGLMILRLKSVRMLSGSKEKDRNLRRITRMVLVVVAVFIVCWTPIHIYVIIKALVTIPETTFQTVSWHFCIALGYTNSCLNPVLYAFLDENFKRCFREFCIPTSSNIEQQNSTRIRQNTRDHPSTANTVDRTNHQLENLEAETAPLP
Sequence of Mu-type opioid receptor (Mus musculus) (P42866 whole entry): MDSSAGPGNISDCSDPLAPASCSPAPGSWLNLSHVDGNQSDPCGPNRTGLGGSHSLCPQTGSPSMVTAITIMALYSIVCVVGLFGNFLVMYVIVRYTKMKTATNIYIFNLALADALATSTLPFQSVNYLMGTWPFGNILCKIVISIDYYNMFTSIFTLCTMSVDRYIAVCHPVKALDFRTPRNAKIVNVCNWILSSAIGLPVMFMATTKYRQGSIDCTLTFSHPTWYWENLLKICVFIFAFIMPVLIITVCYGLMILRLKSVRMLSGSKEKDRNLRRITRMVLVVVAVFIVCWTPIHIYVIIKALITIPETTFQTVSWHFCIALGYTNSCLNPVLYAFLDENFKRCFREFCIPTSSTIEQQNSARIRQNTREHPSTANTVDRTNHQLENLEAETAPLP
T1 sequence (P42866 whole entry): as above

What is called Emax is the maximal effect, on the per cent scale that the assay sets. `O=C(N[C@@H]1C=C[C@@]2(O)[C@H]3Cc4ccc(O)c5c4[C@@]2(CCN3CC2CC2)[C@H]1O5)c1c[nH]c2cccnc12` yielded an Emax in experiment [1] of 22.4%.
In the case of `O=C(N[C@@H]1C=C[C@@]2(O)[C@H]3Cc4ccc(O)c5c4[C@@]2(CCN3CC2CC2)[C@H]1O5)c1c[nH]c2ccncc12`, the maximal response (Emax) in experiment [1] is 14.9%.
In turn, `O=C(N[C@@H]1C=C[C@@]2(O)[C@H]3Cc4ccc(O)c5c4[C@@]2(CCN3CC2CC2)[C@H]1O5)c1c[nH]c2ncccc12` came in with an Emax in experiment [1] (filed as partial agonist) of 40.7%.
Turning to `O=C(N[C@@H]1C=C[C@@]2(O)[C@H]3Cc4ccc(O)c5c4[C@@]2(CCN3CC2CC2)[C@H]1O5)c1c[nH]c2cnccc12`, the maximal effect (Emax) in experiment [1] came to 26.2%.
In experiment [1], `O=C(N[C@@H]1C=C[C@@]2(O)[C@H]3Cc4ccc(O)c5c4[C@@]2(CCN3CC2CC2)[C@H]1O5)c1n[nH]c2ccccc12` returned an Emax of 39.6%.
In general, Ki refers to a measure of affinity in units of concentration, obtained from inhibition or displacement. As usually defined, the EC50 is the concentration needed to bring the measured effect to its halfway point. The molecule `O=C(N[C@@H]1C=C[C@@]2(O)[C@H]3Cc4ccc(O)c5c4[C@@]2(CCN3CC2CC2)[C@H]1O5)c1c[nH]c2ccccc12` registered a Ki in experiment [2] of 190 pM. In addition, in experiment [3] (filed as partial agonist), the Emax came to 79.5%. Also, it took 220 pM to reach a half-maximal effect in experiment [4] (EC50).
In experiment [1], `O=C(N[C@H]1C=C[C@@]2(O)[C@H]3Cc4ccc(O)c5c4[C@@]2(CCN3CC2CC2)[C@H]1O5)c1c[nH]c2ccncc12` returned an Emax of 21.7%.
Molecule `O=C(N[C@H]1C=C[C@@]2(O)[C@H]3Cc4ccc(O)c5c4[C@@]2(CCN3CC2CC2)[C@H]1O5)c1c[nH]c2cnccc12` yielded a maximal response (Emax) in experiment [1] of 21.1%.
On to `O=C(N[C@H]1C=C[C@@]2(O)[C@H]3Cc4ccc(O)c5c4[C@@]2(CCN3CC2CC2)[C@H]1O5)c1c[nH]c2cccnc12`, for which the maximum response (Emax) in experiment [1] came to 18%.
`O=C(N[C@H]1C=C[C@@]2(O)[C@H]3Cc4ccc(O)c5c4[C@@]2(CCN3CC2CC2)[C@H]1O5)c1c[nH]c2ccccc12` gave a Ki in experiment [2] of 290 pM. Further, in experiment [3], the Emax turned out to be 33.3%. The EC50 in experiment [4] is 1000 pM.
For the molecule `O=C(N[C@H]1C=C[C@@]2(O)[C@H]3Cc4ccc(O)c5c4[C@@]2(CCN3CC2CC2)[C@H]1O5)c1n[nH]c2ccccc12`, the Emax in experiment [1] was found to be 12.3%.
Regarding `O=C(N[C@H]1C=C[C@@]2(O)[C@H]3Cc4ccc(O)c5c4[C@@]2(CCN3CC2CC2)[C@H]1O5)c1cccc2cc[nH]c12`, the Emax in experiment [3] stood at 19.1%.
For the molecule `O=C(N[C@H]1C=C[C@@]2(O)[C@H]3Cc4ccc(O)c5c4[C@@]2(CCN3CC2CC2)[C@H]1O5)c1c[nH]c2ncccc12`, in experiment [1], the Emax is 22.1%.
